“And” between values parts separate entries of the source, which are not always exact repeats. Equal values may be shown once.
Test: xn = mol fraction of the nth substance listed

COCCOC + Nc1ccccc1
298.15 K, 101 kPa
Details	viscosity [mPa·s]
x1 = 0.103	2.958
x1 = 0.2053	2.326
x1 = 0.3069	1.85
x1 = 0.4079	1.488
x1 = 0.5082	1.194
x1 = 0.6079	0.96
x1 = 0.7068	0.778
x1 = 0.8052	0.625
x1 = 0.9029	0.505

CCCCC(CC)COC(=O)CC(C(=O)OCC(CC)CCCC)S(=O)(=O)[O-].C[NH+]1C=CN=C1 (stereo unspecified) + O
99.6 kPa, x2 = 0.09474
Details	viscosity [mPa·s]
293.15 K	3381
303.15 K	1440
313.15 K	684
323.15 K	359

CN(C)N + O
293.15 K, 101.3 kPa
Details	viscosity [mPa·s]
x1 = 0.0499	2.05
x1 = 0.1018	3.64
x1 = 0.1471	6.22
x1 = 0.2	8.22
x1 = 0.2498	8.46
x1 = 0.2984	7.51
x1 = 0.3466	6.25
x1 = 0.3995	4.78
x1 = 0.4482	4.23
x1 = 0.4994	2.95
x1 = 0.5955	2.28
x1 = 0.6986	1.27
x1 = 0.8064	0.9
x1 = 0.8999	0.69

CNC(=O)NC + O
101 kPa
Details	viscosity [mPa·s]
293.15 K, x1 = 0.000596	1.045
293.15 K, x1 = 0.06729	2.325
293.15 K, x1 = 0.08722	2.805
298.15 K, x1 = 0.1358	3.535
298.15 K, x1 = 0.2199	5.955
303.15 K, x1 = 0.08722	2.055
308.15 K, x1 = 0.11	2.135
308.15 K, x1 = 0.1358	2.545
313.15 K, x1 = 0.1358	2.195

C[C@H](N)C(=O)[O-].[Na+] + O
viscosity [mPa·s], 101 kPa
Details	x1 = 0.004484	x1 = 0.008927	x1 = 0.01333	x1 = 0.0177	x1 = 0.02202	x1 = 0.02631	x1 = 0.03478	x1 = 0.0431	x1 = 0.05127
293.15 K	1.118	1.239	1.371	1.526	1.683	1.856	2.272	2.747	3.244
303.15 K	0.886	0.979	1.077	1.192	1.305	1.436	1.726	2.062	2.399
313.15 K	0.722	–	0.871	0.96	1.046	1.144	1.372	1.605	1.851
323.15 K	0.602	0.662	0.722	0.791	0.859	0.935	1.1	1.286	1.477

N[C@@H](Cc1ccccc1)C(=O)O + O
viscosity
Details	298.15 K	303.15 K	308.15 K	313.15 K
100 kPa, x1 = 0.0004	0.8956 mPa·s	0.8037 mPa·s	0.7264 mPa·s	–
100 kPa, x1 = 0.0007	0.8984 mPa·s	0.8062 mPa·s	0.7289 mPa·s	0.6638 mPa·s
100 kPa, x1 = 0.001	0.901 mPa·s	0.8088 mPa·s and 0.8113 mPa·s	0.7315 mPa·s and 0.7343 mPa·s	0.6689 mPa·s and 0.6664 mPa·s
100 kPa, x1 = 0.0018	0.9067 mPa·s	0.8139 mPa·s	–	0.6713 mPa·s
100 kPa, x1 = 0.0022	0.9093 mPa·s	0.8169 mPa·s	0.7395 mPa·s	0.6738 mPa·s
101 kPa, x1 = 0.00018	0.912 mPa·s	0.803 mPa·s	0.731 mPa·s	0.658 mPa·s
101 kPa, x1 = 0.000362	0.919 mPa·s	0.809 mPa·s	0.734 mPa·s	–
101 kPa, x1 = 0.000725	0.927 mPa·s	0.822 mPa·s	0.745 mPa·s	0.671 mPa·s
101 kPa, x1 = 0.000909	0.931 mPa·s	0.825 mPa·s	0.749 mPa·s	0.674 mPa·s
101 kPa, x1 = 0.00109	0.949 mPa·s	0.841 mPa·s	–	0.688 mPa·s
101 kPa, x1 = 0.00146	0.959 mPa·s	0.849 mPa·s	0.767 mPa·s	0.692 mPa·s

O.O.O=C(O)c1cc(S(=O)(=O)O)ccc1O + O
viscosity [mPa·s], 101 kPa
Details	x1 = 0.0004118	x1 = 0.0005979	x1 = 0.0007679	x1 = 0.001076
298.15 K	0.8998	0.9032	0.907	0.9134
308.15 K	0.7268	0.7304	0.7332	0.7386
318.15 K	0.597	0.6063	0.6087	0.6128

O=C([O-])[O-].[Na+].[Na+] + O
Details	viscosity
293.15 K, 101.33 kPa, x1 = 0.0032	1.085 mPa·s
293.15 K, 101.33 kPa, x1 = 0.0051	1.152 mPa·s
293.15 K, 101.33 kPa, x1 = 0.008	1.264 mPa·s
293.15 K, 101.33 kPa, x1 = 0.0115	1.414 mPa·s
293.15 K, 101.33 kPa, x1 = 0.0152	1.593 mPa·s
293.15 K, 101.33 kPa, x1 = 0.0197	1.844 mPa·s
293.15 K, 101.33 kPa, x1 = 0.0224	2.015 mPa·s
293.15 K, 101.33 kPa, x1 = 0.0255	2.232 mPa·s
293.15 K, 101.33 kPa, x1 = 0.0288	2.49 mPa·s
293.65 K, 100 kPa, x1 = 0.00502	1.145 mPa·s
298.15 K, 101 kPa, x1 = 0.0002	0.95 mPa·s
298.15 K, 101 kPa, x1 = 0.001	0.95 mPa·s
298.15 K, 101 kPa, x1 = 0.0027	0.99 mPa·s
298.15 K, 101 kPa, x1 = 0.00397	1.01 mPa·s
298.15 K, 101.33 kPa, x1 = 0.0032	0.96 mPa·s
298.15 K, 101.33 kPa, x1 = 0.0051	1.018 mPa·s
298.15 K, 101.33 kPa, x1 = 0.008	1.113 mPa·s
298.15 K, 101.33 kPa, x1 = 0.0115	1.242 mPa·s
298.15 K, 101.33 kPa, x1 = 0.0152	1.395 mPa·s
298.15 K, 101.33 kPa, x1 = 0.0197	1.609 mPa·s
298.15 K, 101.33 kPa, x1 = 0.0224	1.753 mPa·s
298.15 K, 101.33 kPa, x1 = 0.0255	1.937 mPa·s
298.15 K, 101.33 kPa, x1 = 0.0288	2.155 mPa·s
301.15 K, 100 kPa, x1 = 0.0101	1.115 mPa·s and 1.117 mPa·s
303.15 K, 101 kPa, x1 = 0.002	0.836 mPa·s
303.15 K, 101 kPa, x1 = 0.005	0.923 mPa·s
303.15 K, 101 kPa, x1 = 0.009	1.026 mPa·s
303.15 K, 101.33 kPa, x1 = 0.0032	0.864 mPa·s
303.15 K, 101.33 kPa, x1 = 0.0051	0.915 mPa·s
303.15 K, 101.33 kPa, x1 = 0.008	0.998 mPa·s
303.15 K, 101.33 kPa, x1 = 0.0115	1.11 mPa·s
303.15 K, 101.33 kPa, x1 = 0.0152	1.244 mPa·s
303.15 K, 101.33 kPa, x1 = 0.0197	1.429 mPa·s
303.15 K, 101.33 kPa, x1 = 0.0224	1.554 mPa·s
303.15 K, 101.33 kPa, x1 = 0.0255	1.712 mPa·s
303.15 K, 101.33 kPa, x1 = 0.0288	1.9 mPa·s
306.65 K, 100 kPa, x1 = 0.0101	0.987 mPa·s
308.15 K, 101 kPa, x1 = 0.002	0.763 mPa·s
308.15 K, 101 kPa, x1 = 0.005	0.842 mPa·s
308.15 K, 101 kPa, x1 = 0.009	0.931 mPa·s
308.65 K, 100 kPa, x1 = 0.00502	0.825 mPa·s
311.15 K, 100 kPa, x1 = 0.0168	1.1 mPa·s
311.15 K, 100 kPa, x1 = 0.02299	1.331 mPa·s and 1.332 mPa·s
313.15 K, 101 kPa, x1 = 0.0002	0.7 mPa·s
313.15 K, 101 kPa, x1 = 0.001	0.7 mPa·s
313.15 K, 101 kPa, x1 = 0.002	0.694 mPa·s
313.15 K, 101 kPa, x1 = 0.0027	0.72 mPa·s
313.15 K, 101 kPa, x1 = 0.00397	0.74 mPa·s
313.15 K, 101 kPa, x1 = 0.005	0.763 mPa·s
313.15 K, 101 kPa, x1 = 0.009	0.846 mPa·s

O=S(=O)([O-])c1ccc(O)cc1.[Na+] + O
viscosity [mPa·s], 101 kPa
Details	x1 = 9e-05	x1 = 0.00018	x1 = 0.0009	x1 = 0.0018	x1 = 0.00448	x1 = 0.00893	x1 = 0.0133	x1 = 0.0177
298.15 K	0.899	0.9	0.915	0.931	0.988	1.085	1.196	1.321
318.15 K	0.598	0.599	0.608	0.62	0.656	0.715	0.786	0.86

OC[C@@H](O)[C@H](O)[C@@H](O)CO + O
viscosity [mPa·s], 101.3 kPa
Details	x1 = 0.00359	x1 = 0.007154	x1 = 0.0107	x1 = 0.01421	x1 = 0.0177	x1 = 0.02631	x1 = 0.03478	x1 = 0.0431	x1 = 0.05127
293.15 K	1.06	1.14	–	1.32	–	1.72	2.09	2.42	2.85
303.15 K	0.85	0.91	0.99	1.04	–	1.33	1.53	1.8	2.1
313.15 K	0.69	0.78	0.79	0.83	0.9	1.02	1.19	1.38	1.6
323.15 K	0.58	0.62	–	0.69	0.75	0.85	0.96	1.1	1.25

Source: the CheMixHub viscosity set
